In ChEMBL document CHEMBL1201862, “PubChem BioAssay data set” (2004):
Calls of active or inactive are those of the source. Rule as the data show it, for most assays here: actives have a measured EC50 and inactives only a lower limit.

System: not listed separately
Assay: NIH-3T3 fibroblast cytotoxicity, dose response, cytotoxicity control, cell-based, fluorescence, Alamar Blue, secondary assay (AID 2327);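 also: NIH-3T3 mouse fibroblasts cultured with fluconazole at 8 µg/mL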
Format: functional
Conditions: not given

Row | Compound | EC50
1 | COc1ccc(-c2cn3c([n+]2-c2ccccc2)CCCCC3)cc1 | > 150 µM (inactive)
2 | Cc1ccc(NC(=O)C2C(C(=O)O)C3C=CC2C32CC2)cc1 (stereo not given) | 46.2 µM (active)
3 | CCCCN(C)S(=O)(=O)c1ccc(C(=O)Nc2nnc(-c3cccs3)o2)cc1 | > 150 µM (inactive)
4 | O=C(c1ccoc1)N1CCC2(CC1)Oc1ccc(F)cc1C(=O)C21CC(c2ccccc2)=NO1 (stereo not given) | > 150 µM (inconclusive)
5 | Cc1cccc(NC(=S)N/N=C(\c2ccccc2)C(C)C)c1 | > 150 µM (inconclusive)

System: not listed separately
Assay: inhibitors of firefly luciferase expression or activity, dose response, H4 neuroglioma cells, luminescence (AID 1990)
Format: functional, cell-based
Conditions: not given

Row | Compound | EC50
6 | Cc1ccc(C)c(N(CC(=O)Nc2ccccc2C(=O)NCc2ccco2)S(=O)(=O)c2ccccc2)c1 | 15.6 µM (active)
7 | CCc1nc(SCC(=O)Nc2cccc(C(F)(F)F)c2)c2c(=O)n(C)c(=O)n(C)c2n1 | 19.1 µM (active)
8 | Nc1nc(NCCc2ccccc2)nc(NCCO)c1[N+](=O)[O-] | 19.1 µM (active)
9 | COCCCNc1nc(N)c([N+](=O)[O-])c(NCc2ccccc2)n1 | 19.4 µM (active)
10 | O=C(Cn1cc2c(n1)CCCC2)NCc1cccc(Cl)c1 | > 120 µM (not active)

Biological target: T1, RNA-binding protein pos-1 (Caenorhabditis elegans, UniProt G5EF15)
T1 sequence (G5EF15 whole entry): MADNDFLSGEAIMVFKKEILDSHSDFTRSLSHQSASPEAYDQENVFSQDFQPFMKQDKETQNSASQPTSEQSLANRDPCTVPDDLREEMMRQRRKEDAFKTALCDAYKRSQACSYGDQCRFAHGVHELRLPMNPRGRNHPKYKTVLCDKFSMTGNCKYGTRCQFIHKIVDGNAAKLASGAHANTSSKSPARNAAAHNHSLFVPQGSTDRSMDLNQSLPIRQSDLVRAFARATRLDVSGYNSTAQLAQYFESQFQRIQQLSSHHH
Assay: inhibitors of POS-1/mex-3 RNA binding, dose response, biochemical, fluorescence polarization (AID 1964);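 also: purified POS-1 fused to maltose binding protein made in E. coli; potency of compounds blocking POS-1 binding to fluorescent RNA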
Conditions: not given

Row | Compound | EC50
11 | CCN1C(=C(C#N)C#N)C=Cc2ccccc21 | > 300 µM (inconclusive)
12 | CCc1ccc(/C=C2\Oc3c(ccc(O)c3CN3CCN(CCO)CC3)C2=O)cc1 | 37.1 µM (active)
13 | CCCCCCN1C(=O)/C(=C/Nc2ccccc2N2CCOCC2)C(=O)NC1=S | > 300 µM (not active)
14 | FC(F)(F)c1cc(C(F)(F)F)n2nc(-c3sccc3-n3cccc3)cc2n1 | > 300 µM (not active)
15 | Cc1ccc(N(C)S(=O)(=O)c2c(C)noc2/C=C/N(C)C)cc1 | > 300 µM (not active)
16 | O=C(O)CCc1ccc(-c2ccccc2)n1-c1cccc(C(=O)O)c1 | > 300 µM (not active)
17 | CC/C(NCCCN(C)C)=C1/C(=O)NC(=O)N(c2ccc(OC)cc2)C1=O | > 300 µM (not active)
18 | C/C(=N/N=C(\C)c1ccccc1O)c1ccccc1O | > 300 µM (not active)
19 | O=C(Cn1cncn1)N/N=C/c1c2ccccc2cc2ccccc12 | > 300 µM (not active)

System: Streptococcus sp. 'group A'
Assay: growth inhibition of control SK(-) GAS strain, dose response, counter-screen for streptokinase expression inhibitor project, luminescence, kanamycin, BacTiterGlo, confirmation (AID 1900)
Format: functional, organism-based
Conditions: not given

Row | Compound | EC50
20 | CCCCN(C)S(=O)(=O)c1ccc(C(=O)Nc2nnc(-c3cccs3)o2)cc1 | 0.68 µM (active)

System: not listed separately
Assay: Luminescence Cell-Based Dose Response HTS to Identify Inhibitors of 5'UTR Stem-Loop Driven Prion Protein mRNA Translation in H4 Neuroglioblastoma Cells. [Related pubchem assays: 1827 (Project Summary), 1813 (Primary HTS)]
Format: functional
Conditions: not given

Row | Compound | EC50
21 | Cc1ccc(C)c(N(CC(=O)Nc2ccccc2C(=O)NCc2ccco2)S(=O)(=O)c2ccccc2)c1 | > 120 µM (not active)
22 | CCc1nc(SCC(=O)Nc2cccc(C(F)(F)F)c2)c2c(=O)n(C)c(=O)n(C)c2n1 | 16.4 µM (active)
23 | Nc1nc(NCCc2ccccc2)nc(NCCO)c1[N+](=O)[O-] | > 120 µM (not active)
24 | COCCCNc1nc(N)c([N+](=O)[O-])c(NCc2ccccc2)n1 | > 120 µM (not active)
25 | O=C(Cn1cc2c(n1)CCCC2)NCc1cccc(Cl)c1 | > 120 µM (not active)

Biological target: T2, Zinc finger protein mex-5 (Caenorhabditis elegans, UniProt Q9XUB2)
T2 sequence (Q9XUB2 whole entry): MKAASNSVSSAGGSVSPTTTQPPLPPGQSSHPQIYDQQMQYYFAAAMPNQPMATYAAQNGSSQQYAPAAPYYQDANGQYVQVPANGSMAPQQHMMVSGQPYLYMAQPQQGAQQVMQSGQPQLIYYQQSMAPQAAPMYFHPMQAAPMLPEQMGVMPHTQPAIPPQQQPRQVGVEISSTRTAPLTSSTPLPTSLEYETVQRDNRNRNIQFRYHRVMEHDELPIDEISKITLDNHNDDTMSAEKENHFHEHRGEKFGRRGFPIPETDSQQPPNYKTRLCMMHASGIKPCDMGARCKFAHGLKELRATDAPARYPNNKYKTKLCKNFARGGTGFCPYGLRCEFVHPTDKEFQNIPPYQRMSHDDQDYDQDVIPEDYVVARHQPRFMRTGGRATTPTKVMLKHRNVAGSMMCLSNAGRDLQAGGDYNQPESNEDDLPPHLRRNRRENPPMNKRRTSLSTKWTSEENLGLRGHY
Assay: MEX-5/TCR-2 RNA interaction inhibitors, dose response, biochemical, C. elegans, fluorescence polarization (AID 1960)
Conditions: not given

Row | Compound | EC50
26 | CCN1C(=C(C#N)C#N)C=Cc2ccccc21 | > 300 µM (not active)
27 | CCc1ccc(/C=C2\Oc3c(ccc(O)c3CN3CCN(CCO)CC3)C2=O)cc1 | 73.3 µM (active)
28 | CCCCCCN1C(=O)/C(=C/Nc2ccccc2N2CCOCC2)C(=O)NC1=S | > 300 µM (inconclusive)
29 | FC(F)(F)c1cc(C(F)(F)F)n2nc(-c3sccc3-n3cccc3)cc2n1 | > 300 µM (not active)
30 | Cc1ccc(N(C)S(=O)(=O)c2c(C)noc2/C=C/N(C)C)cc1 | > 300 µM (not active)
31 | O=C(O)CCc1ccc(-c2ccccc2)n1-c1cccc(C(=O)O)c1 | > 300 µM (not active)
32 | CC/C(NCCCN(C)C)=C1/C(=O)NC(=O)N(c2ccc(OC)cc2)C1=O | > 300 µM (not active)
33 | C/C(=N/N=C(\C)c1ccccc1O)c1ccccc1O | > 300 µM (inconclusive)
34 | O=C(Cn1cncn1)N/N=C/c1c2ccccc2cc2ccccc12 | > 300 µM (not active)

System: not listed separately
Assay: inhibitors of SNCA 5'UTR-driven reporter translation, confirmation, H4 neuroglioma cells, luminescence (AID 1988)
Format: functional, cell-based
Conditions: not given

Row | Compound | EC50
35 | Cc1ccc(C)c(N(CC(=O)Nc2ccccc2C(=O)NCc2ccco2)S(=O)(=O)c2ccccc2)c1 | > 120 µM (not active)
36 | CCc1nc(SCC(=O)Nc2cccc(C(F)(F)F)c2)c2c(=O)n(C)c(=O)n(C)c2n1 | 15.9 µM (active)
37 | Nc1nc(NCCc2ccccc2)nc(NCCO)c1[N+](=O)[O-] | 39.1 µM (active)
38 | COCCCNc1nc(N)c([N+](=O)[O-])c(NCc2ccccc2)n1 | 14.2 µM (active)
39 | O=C(Cn1cc2c(n1)CCCC2)NCc1cccc(Cl)c1 | > 120 µM (not active)

System: not listed separately
Assay: C. albicans growth with fluconazole, confirmation, fluorescence, retest (AID 2467)
Format: functional, cell-based
Conditions: not given

Row | Compound | EC50
40 | COc1ccc(-c2cn3c([n+]2-c2ccccc2)CCCCC3)cc1 | 2.53 µM (active)
41 | Cc1ccc(NC(=O)C2C(C(=O)O)C3C=CC2C32CC2)cc1 (stereo not given) | > 38 µM (not active)
42 | CCCCN(C)S(=O)(=O)c1ccc(C(=O)Nc2nnc(-c3cccs3)o2)cc1 | 0.861 µM (active)
43 | O=C(c1ccoc1)N1CCC2(CC1)Oc1ccc(F)cc1C(=O)C21CC(c2ccccc2)=NO1 (stereo not given) | 1.18 µM (active)
44 | Cc1cccc(NC(=S)N/N=C(\c2ccccc2)C(C)C)c1 | 3.98 µM (active)

Biological target: Luciferin 4-monooxygenase (Photinus pyralis, UniProt P08659)
Sequence (P08659 whole entry): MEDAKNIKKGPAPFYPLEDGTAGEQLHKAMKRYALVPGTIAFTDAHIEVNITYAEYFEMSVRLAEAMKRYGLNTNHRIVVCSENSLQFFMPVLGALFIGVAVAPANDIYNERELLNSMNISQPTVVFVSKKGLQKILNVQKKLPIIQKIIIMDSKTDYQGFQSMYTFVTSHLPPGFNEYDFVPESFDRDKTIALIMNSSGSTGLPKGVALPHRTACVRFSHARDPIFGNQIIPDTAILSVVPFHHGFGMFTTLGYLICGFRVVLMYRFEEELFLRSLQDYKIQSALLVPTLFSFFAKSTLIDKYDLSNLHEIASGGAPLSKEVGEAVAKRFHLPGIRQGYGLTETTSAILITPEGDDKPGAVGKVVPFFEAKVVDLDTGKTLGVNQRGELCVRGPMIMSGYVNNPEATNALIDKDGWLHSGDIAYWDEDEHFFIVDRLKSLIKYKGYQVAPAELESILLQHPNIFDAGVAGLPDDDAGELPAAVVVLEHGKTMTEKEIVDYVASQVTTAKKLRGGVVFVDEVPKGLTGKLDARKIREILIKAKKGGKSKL
Assay: firefly luciferase enzyme inhibitors, dose response, biochemical, luminescence (AID 1891)
Conditions: not given

Row | Compound | EC50
45 | Cc1cc(NC(=O)/C=C/c2cccc(Cl)c2)n(-c2nc3ccccc3[nH]2)n1 | > 112 µM (not active)

System: not listed separately
Assay: Luminescence Cell-Based Dose Confirmation HTS to Identify Inhibitors of Platelet Dense Granule Release. [Related pubchem assays: 1663 (Primary HTS), 1678 (Summary of Project)]
Format: functional
Conditions: not given

Row | Compound | EC50
46 | Cc1cc(NC(=O)/C=C/c2cccc(Cl)c2)n(-c2nc3ccccc3[nH]2)n1 | 49.7 µM (active)

System: not listed separately
Assay: inhibitors of intracellular T. cruzi replication, confirmation, NIH3T3 host cells, beta-gal luminescence (AID 2044);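 also: intracellular parasites grown in NIH/3T3 mouse fibroblasts as host cells; luminescent beta-galactosidase reporter signal from transgenic T. cruzi replicating inside host cells; inhibitors lower the luminescence signal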
Format: functional, cell-based
Conditions: not given

Row | Compound | EC50
47 | CCCCN(C)S(=O)(=O)c1ccc(C(=O)Nc2nnc(-c3cccs3)o2)cc1 | 1.09 µM (active)

System: not listed separately
Assay: cytotoxicity toward NIH3T3 fibroblasts, dose response, counter-screen, cell-based, ATP luminescence, mouse fibroblasts (AID 2010);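 also: cells exposed to compound for about 90 hours before reading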
Format: functional
Conditions: not given

Row | Compound | EC50
48 | CCCCN(C)S(=O)(=O)c1ccc(C(=O)Nc2nnc(-c3cccs3)o2)cc1 | 8 µM (active)

System: Streptococcus
Assay: Group A Streptococcus viability loss, dose response, counter-screen for streptokinase expression inhibitor project, luminescence, BacTiterGlo (AID 1915);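 also: potency for reduction of bacterial viability or growth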
Format: functional, organism-based
Conditions: not given

Row | Compound | EC50
49 | CCCCN(C)S(=O)(=O)c1ccc(C(=O)Nc2nnc(-c3cccs3)o2)cc1 | 3.65 µM (active)

System: INS1
Assay: beta cell apoptosis inhibitors, cytokine rescue, dose response, luminescence, retest (AID 449756);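 also: cell death triggered by IL-1 beta plus TNF-alpha plus IFN-gamma mixture; protective hits raise ATP signal compared with cytokine alone wells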
Format: functional, cell-based
Conditions: Rattus norvegicus

Row | Compound | AC50
50 | COc1ccc(-c2cn3c([n+]2-c2ccccc2)CCCCC3)cc1 | 2.58 µM (active)
